This is an account of results in PubChem BioAssay AID330 (DTP/NCI, 2004).

This experiment deals with P388 leukemia ip, CD2F1 mice, survival T/C. Kind of experiment: NCI In Vivo Anticancer Drug Screen. Data for tumor model P388 Leukemia (intraperitoneal) in CD2F1 (CDF1) mice. As to conditions: endpoint: median survival time, higher = longer survival. The method in brief:
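Mice carrying the transplanted tumor received test compound or vehicle. Survival was recorded in each group, and the value is the treated-group measurement divided by that of the vehicle-treated control group.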

[1] abbreviates: dose: 50.0 mg/kg/injection, schedule: Q01DX005 (ip), vehicle: saline with Tween-80.
[2] abbreviates: dose: 100.0 mg/kg/injection, schedule: Q01DX005 (ip), vehicle: saline with Tween-80.
[3] abbreviates: dose: 200.0 mg/kg/injection, schedule: Q01DX005 (ip), vehicle: saline with Tween-80.
Where [4] appears, read: dose: 60.0 mg/kg/injection, schedule: Q01DX005 (ip), vehicle: Klucel (hydroxypropylcellulose) (HPC).
The mark [5] stands for this setting: dose: 120.0 mg/kg/injection, schedule: Q01DX005 (ip), vehicle: Klucel (hydroxypropylcellulose) (HPC).
The mark [6] stands for this setting: dose: 240.0 mg/kg/injection, schedule: Q01DX005 (ip), vehicle: Klucel (hydroxypropylcellulose) (HPC).
Where [7] appears, read: dose: 60.0 mg/kg/injection, schedule: Q01DX005 (ip), vehicle: saline.
The mark [8] stands for this setting: dose: 120.0 mg/kg/injection, schedule: Q01DX005 (ip), vehicle: saline.
Where [9] appears, read: dose: 240.0 mg/kg/injection, schedule: Q01DX005 (ip), vehicle: saline.
Setting [10] is: dose: 100.0 mg/kg/injection, schedule: Q01DX001 (ip), vehicle: saline with Tween-80.
Setting [11] is: dose: 60.0 mg/kg/injection, schedule: Q01DX005 (ip), vehicle: saline with Tween-80.
Where [12] appears, read: dose: 120.0 mg/kg/injection, schedule: Q01DX005 (ip), vehicle: saline with Tween-80.
Where [13] appears, read: dose: 240.0 mg/kg/injection, schedule: Q01DX005 (ip), vehicle: saline with Tween-80.
The mark [14] stands for this setting: dose: 50.0 mg/kg/injection, schedule: Q01DX009 (ip), vehicle: saline.

Several values for one entry are separate records, joined by “and”; a condition that tells them apart may be missing. Identical values can stand only once. Toxic doses and inconclusive results are not listed.

For the compound `CC(C)(C)OC(=O)NC(CCC(=O)O)C(=O)O` (stereo not drawn), the T/C runs as follows: under setting [1], 100 % of control; under setting [2], 97 % of control; under setting [3], 103 % of control.

On to `O=P1(c2ccccc2)C=C(c2ccccc2)NC(c2ccccc2)=C1`, for which the T/C is 93 % of control under setting [1] and 90 % of control under setting [3].

As for `COC(=O)c1c(-c2cc(OC)c(OC)cc2[N+](=O)[O-])cn(C)c1C`, the T/C is 88 % of control under setting [1] and 86 % of control under setting [2].

For the compound `O=NNc1cccnc1Cl`, the T/C (dose: 1.56 mg/kg/injection, schedule: Q01DX009 (ip), vehicle: water) was 110 % of control; the T/C (dose: 3.12 mg/kg/injection, schedule: Q01DX009 (ip), vehicle: water) is 102 % of control and 108 % of control; the T/C (dose: 6.25 mg/kg/injection, schedule: Q01DX009 (ip), vehicle: water) was 99 % of control and 98 % of control; the T/C (dose: 12.5 mg/kg/injection, schedule: Q01DX009 (ip), vehicle: water) is 107 % of control and 110 % of control; the T/C (dose: 25.0 mg/kg/injection, schedule: Q01DX009 (ip), vehicle: water) is 107 % of control and 117 % of control; the T/C (dose: 50.0 mg/kg/injection, schedule: Q01DX009 (ip), vehicle: water) is 105 % of control.

`COC12C=CC(=O)N1CCC2` (stereo not drawn): the T/C reads like this: (dose: 7.5 mg/kg/injection, schedule: Q01DX005 (ip), vehicle: DMSO) 90 % of control; (dose: 15.0 mg/kg/injection, schedule: Q01DX005 (ip), vehicle: DMSO) 101 % of control; (dose: 30.0 mg/kg/injection, schedule: Q01DX005 (ip), vehicle: DMSO) 101 % of control.

For the compound `Cc1ccc(-n2c(=O)nc([O-])[n+]3ccccc23)cc1`, the T/C runs as follows: under setting [4], 99 % of control; under setting [5], 98 % of control; under setting [6], 96 % of control.

As for `O=S(=O)(O)CC(O)CNC(CO)(CO)CO` (stereo not drawn), the T/C is, setting by setting: under setting [7], 104 % of control; under setting [8], 98 % of control; under setting [9], 104 % of control.

On to `CCc1nc(N)nc(N)c1-c1ccc(Cl)c(NN=NC)c1`, for which the T/C (dose: 12.5 mg/kg/injection, schedule: Q01DX005 (ip), vehicle: saline with Tween-80) is 109 % of control; the T/C (dose: 25.0 mg/kg/injection, schedule: Q01DX005 (ip), vehicle: saline with Tween-80) is 108 % of control; the T/C under setting [1] was 105 % of control and 110 % of control; the T/C under setting [2] is 112 % of control.

Take `C[Si](C)(C)/C=C1\OC=CC(c2ccccc2)O1` (stereo not drawn): the T/C was 99 % of control under setting [10]; 100 % of control (dose: 200.0 mg/kg/injection, schedule: Q01DX001 (ip), vehicle: saline with Tween-80); 103 % of control (dose: 400.0 mg/kg/injection, schedule: Q01DX001 (ip), vehicle: saline with Tween-80).

In the case of `O=C(CNC(=O)NCc1ccco1)NNC(=O)Nc1ccc(F)c(Cl)c1`, the T/C is, setting by setting: under setting [11], 101 % of control; under setting [12], 106 % of control; under setting [13], 110 % of control.

For the compound `O=C1CC2(CCCc3sccc32)C(=O)N1` (stereo not drawn), the T/C runs as follows: under setting [11], 101 % of control; under setting [12], 94 % of control; under setting [13], 92 % of control.

`C[S+](C)c1ccc(Cl)cc1`: the T/C is, setting by setting: (dose: 12.5 mg/kg/injection, schedule: Q01DX009 (ip), vehicle: saline) 95 % of control; (dose: 25.0 mg/kg/injection, schedule: Q01DX009 (ip), vehicle: saline) 91 % of control; under setting [14], 108 % of control.

On to `Cc1cc(O)c(-c2c(-c3ccccc3C(=O)O)oc3cc(C)c(C)cc23)cc1C`, for which the T/C is 89 % of control under setting [14]; 89 % of control (dose: 100.0 mg/kg/injection, schedule: Q01DX009 (ip), vehicle: saline); 90 % of control (dose: 200.0 mg/kg/injection, schedule: Q01DX009 (ip), vehicle: saline).

For the compound `CCC1C(=O)CC(C(=O)O)C1C(=O)O` (stereo not drawn), the T/C (dose: 30.0 mg/kg/injection, schedule: Q01DX005 (ip), vehicle: saline) was 98 % of control; the T/C under setting [7] is 98 % of control and 96 % of control; the T/C under setting [8] was 95 % of control; the T/C under setting [9] is 86 % of control.

In the case of `O=C(O)c1ccccc1N=Nc1ccc(N(CCCl)CCCl)cc1`, the T/C (dose: 3.13 mg/kg/injection, schedule: Q04DX003 (ip), vehicle: Klucel (hydroxypropylcellulose) (HPC)) was 122 % of control; the T/C (dose: 6.25 mg/kg/injection, schedule: Q01DX009 (ip), vehicle: saline with Tween-80) was 166 % of control; the T/C (dose: 12.5 mg/kg/injection, schedule: Q01DX009 (ip), vehicle: saline with Tween-80) is 152 % of control and 154 % of control; the T/C (dose: 12.5 mg/kg/injection, schedule: Q04DX003 (ip), vehicle: Klucel (hydroxypropylcellulose) (HPC)) was 177 % of control; the T/C (dose: 25.0 mg/kg/injection, schedule: Q01DX009 (ip), vehicle: saline with Tween-80) is 162 % of control and 166 % of control; the T/C (dose: 50.0 mg/kg/injection, schedule: Q01DX009 (ip), vehicle: saline with Tween-80) is 99 % of control.

For the compound `COC(/C=N/OC(C)=O)c1ccccc1` (stereo not drawn), the T/C runs as follows: (dose: 25.0 mg/kg/injection, schedule: Q04DX003 (ip), vehicle: saline with Tween-80) 98 % of control and 99 % of control; (dose: 50.0 mg/kg/injection, schedule: Q04DX003 (ip), vehicle: saline with Tween-80) 102 % of control and 92 % of control.

In the case of `CCCCN=C(N)N/N=C/c1c2ccccc2c(C)c2ccccc12`, the T/C reads like this: (dose: 12.5 mg/kg/injection, schedule: Q04DX002 (ip), vehicle: saline with Tween-80) 104 % of control; (dose: 25.0 mg/kg/injection, schedule: Q04DX002 (ip), vehicle: saline with Tween-80) 104 % of control; (dose: 50.0 mg/kg/injection, schedule: Q04DX002 (ip), vehicle: saline with Tween-80) 104 % of control.

In the case of `Nc1nnc2n(N)cnn12`, the T/C (dose: 100.0 mg/kg/injection, schedule: Q04DX002 (ip), vehicle: water) is 114 % of control; the T/C (dose: 200.0 mg/kg/injection, schedule: Q04DX002 (ip), vehicle: water) was 109 % of control; the T/C (dose: 400.0 mg/kg/injection, schedule: Q04DX002 (ip), vehicle: water) is 106 % of control.

As for `Cc1ccc(C(=O)/C(N)=C/c2ccccn2)cc1`, the T/C reads like this: (dose: 100.0 mg/kg/injection, schedule: Q01DX001 (ip), vehicle: saline) 107 % of control; (dose: 200.0 mg/kg/injection, schedule: Q01DX001 (ip), vehicle: saline) 105 % of control; (dose: 400.0 mg/kg/injection, schedule: Q01DX001 (ip), vehicle: saline) 101 % of control.

`ClCCCCOC1CCCCO1` (stereo not drawn): the T/C is, setting by setting: under setting [11], 107 % of control; under setting [12], 100 % of control; under setting [13], 105 % of control.

`COc1cc(/C=N\Nc2ccccc2[N+](=O)[O-])cc(OC)c1OC`: the T/C was 87 % of control (dose: 100.0 mg/kg/injection, schedule: Q04DX003 (ip), vehicle: saline with Tween-80); 87 % of control (dose: 200.0 mg/kg/injection, schedule: Q04DX003 (ip), vehicle: saline with Tween-80); 91 % of control (dose: 400.0 mg/kg/injection, schedule: Q04DX003 (ip), vehicle: saline with Tween-80).

On to `O=C1C2=C(Nc3cc([N+](=O)[O-])ccc3N2)OC1c1ccccc1O` (stereo not drawn), for which the T/C reads like this: (dose: 30.0 mg/kg/injection, schedule: Q01DX005 (ip), vehicle: Klucel (hydroxypropylcellulose) (HPC)) 106 % of control; under setting [4], 103 % of control and 90 % of control; under setting [5], 101 % of control; under setting [6], 90 % of control.

On to `[Cl][Ge]([c]1ccccc1)[c]1ccccc1.[Cl][Ge]([c]1ccccc1)[c]1ccccc1`, for which the T/C reads like this: (dose: 3.12 mg/kg/injection, schedule: Q01DX005 (ip), vehicle: Klucel (hydroxypropylcellulose) (HPC)) 111 % of control; (dose: 6.25 mg/kg/injection, schedule: Q01DX005 (ip), vehicle: Klucel (hydroxypropylcellulose) (HPC)) 116 % of control; (dose: 12.5 mg/kg/injection, schedule: Q01DX005 (ip), vehicle: Klucel (hydroxypropylcellulose) (HPC)) 106 % of control.

Regarding `COC1=C(OC)C(=O)C2=C(OCCO2)C1=O`, the T/C is 109 % of control (dose: 25.0 mg/kg/injection, schedule: Q01DX001 (ip), vehicle: saline with Tween-80); 106 % of control (dose: 50.0 mg/kg/injection, schedule: Q01DX001 (ip), vehicle: saline with Tween-80); 107 % of control under setting [10].
